Reference: US6331555A, “Treatment of platelet derived growth factor related disorders such as cancers” (priority 1999, dated 2001)
Read-outs that look alike come from different tables or passages of the source.

Assays:
T98G cells = test: PDGF-stimulated DNA synthesis, T98G cells (3H-thymidine); format: cell-based, human
Experimental: T98G cells in log phase growth were transferred to 96-well dishes at 20,000 cells in 200 μL of serum-containing growth medium. After an overnight attachment period, the monolayers were washed twice with 200 μL MCDB 105 medium and the cells were cultured in 200 μL serum-free MCDB 105 medium for 24 hr. […] The plates were incubated at 37° C. at ambient CO2 for approximately 18 hr. ^3 H-thymidine (Amersham, 5 Ci/mmol) was added to each well to yield a final concentration of 5 μCi/mL and the plates were returned to 37° C. incubator. After 4 hr the medium was removed, the plates were put onto ice, and washed twice with 200 μL ice-cold PBS per well. Radioactivity incorporated into DNA was separated from unincorporated ^3 H-thymidine by precipitation with 100 μL ice-cold TCA for 10 min on ice. […] Six mL of cocktail (Ready Safe, Beckman) was added and radioactivity quantified in a Beckman liquid scintillation counter model LS6000SC. […]
The effect on basal ^3 H-thymidine incorporation was determined in the absence of PDGF. […] Radioactivity incorporated into DNA was separated from unincorporated ^3 H-thymidine by precipitation with […] ice-cold TCA for 10 minutes. […] Six ml of cocktail (Ready Safe, Beckman) was added and radioactivity quantified in a Beckman liquid scintillation counter model LS6000 SC.

[1] = format: in vivo, mouse; details: IP A10 40 mg/kg single dose
Experimental: (§1) Plasma was prepared and frozen in liquid nitrogen. Tissues and organs were resected and immediately frozen in liquid nitrogen. After the addition of an internal standard, plasma samples were acidified with HCl and extracted with acetonitrile. The acetonitrile fraction was evaporated to dryness in a vacuum centrifuge with heating and redissolved in methanol. Tissue and organ samples were homogenized according to the weight ratio of 1:5 (w:v) in 50 mM Tris-HCl, pH 7.4, at 20,000 rev/min, using a tissue homogenizer (Brinkmann Polytron Model PT3000). After the addition of an internal standard, the homogenate was acidified with HCl and then extracted with acetonitrile. The acetonitrile fraction was then extracted with an equal volume of diethyl ether. The ether fraction was evaporated to dryness in a vacuum centrifuge with heating and redissolved in methanol.
Samples for HPLC analysis were injected onto a Hewlett Packard Hypersil 5-μm C18 cartridge column (100×4.6 mm). […] The compounds were monitored by UV absorption at 254 nm using a Hewlett-Packard diode-array detector (HP Model 1090). Plasma and tissue concentrations were determined from standard curves using peak area for quantitation. […]
(§2) Table XXII. […] Plasma and brain samples were prepared and analyzed by HPLC as described in Appendix 6. All results were calculated by the method of internal standardization. NT= not tested, ND= not detected.

in vivo = test: in vivo; parameters: species or system rat; details: IP A10 80 mg/kg single dose
Experimental: as §1
(§3) Samples for HPLC analysis were injected onto a Hewlett Packard Hypersil 5-μm C18 cartridge column (100×4.6 mm). The mobile phase was methanol:35 mM KH2 PO4 (pH 4.5) 55:45 containing 4 mM triethylamine. The flow rate was 1.2 mL/min. The compounds were monitored by UV absorption at 254 nm using a Hewlett-Packard diode-array detector (HP Model 1090). Plasma and tissue concentrations were determined from standard curves using peak area for quantitation. […] The internal standard used was 5-methyl-pyrazole-4-carboxylic acid-(4-trifluoromethyl)-anilide.
as §2

Solubility = details: water
Excerpt: PBTE consists of a solution of 3% w/v benzyl alcohol, 8% w/v polysorbate 80, and 65% w/v polyethylene glycol (MW=300 daltons) in absolute ethanol. PBTE:D5W consists of PBTE diluted 1:1 in a solution of 5% dextrose in water. […] The solubility of the other compounds described herein can be obtained using standard techniques.

C6 glioma cells = test: C6 glioma SC xenograft in mice; format: in vivo
Experimental: Cell lines were grown in appropriate medium (see Appendix 1). Cells were harvested at or near confluency with 0.05% Trypsin-EDTA and pelleted at 450×g for 10 min. Pellets were resuspended in sterile PBS or media (without FBS) to a particular concentration and the cells were implanted into the hindflank of mice. Tumor growth was measured over 3 to 6 weeks using venier calipers. Tumor volumes were calculated as a product of length×width×height unless otherwise indicated. P values were calculated using the Students' t-test.
C6 and SKOV-3(T) cells were grown in culture, as described in "cell growth" above, and implanted into the hind flank of a female Balb/c nu/nu mouse at 3×10^6 cells (for C6 experiments), or 1×10^7 cells (for SKOV-3 experiments) in […] of PBS on Day 0. U87MG, U118MG or U373MG human glioblastoma cells (obtained from the ATCC), or A4312 were also implanted into athymic mice. […] Tumors were measured using venier calipers and tumor volume was calculated as a product of tumor length, width, and height.

[2] = test system: NIH3T3 cells overexpressing the human PDGF-b receptor; test: PDGF-stimulated cell cycle progression, flow cytometry; format: cell-based, mouse
Experimental: NIH3T3 mouse fibroblasts overexpressing the human PDGF-β receptor were seeded in DMEM supplemented with 10% CS and 2 mM GLN. Cells were grown to about 80% confluence and then treated overnight in serum-free medium (DMEM, 2 mM GLN, 2 mM NEAA, 2 mM NaPyr, and 2 mM HEPES). […] Cells were then collected, strained and analyzed by flow cytometry for DNA content.
The percentage of cells in the S phase of the cell cycle was determined by flow cytometry.
The cells were analyzed for DNA content by flow cytometry.

[3] = Experimental: as §1, §3, §2
tumor cell lines = test: In vitro growth assays, tumor cell lines; format: cell-based
Experimental: The assay measures protein content of acid-fixed cells using the counterion binding dye sulforhodamine B (SRB, Sigma). […] For other cell lines, the cells (2000 cells/well in 100 μL) were introduced into wells immediately after dispensing the drug solutions. After 4 days (37° C., 5% CO2) the monolayers were washed 3 times with PBS and fixed with 200 μL ice-cold 10% TCA (Fisher Scientific), and kept at 4° C. for 60 min. The TCA was removed and the fixed monolayers were washed 5 times with tap water and allowed to dry completely at room temperature on absorbent paper. The cellular protein was stained for 10 min with 100 μL 0.4% SRB dissolved in 1% acetic acid. After 5 washes with tap water, the dye was solubilized in 10 mM Tris base (100 μL per well) and absorbance read at 570 nm on a Dynatech plate reader model MR5000. Growth inhibition data are expressed as a percentage of absorbance detected in control wells which were treated with 0.4% DMSO alone. DMSO controls were not different from cells grown in regular growth medium. IC50 values were determined using a four parameter curve fit function.
For K562, DlB, L1210, 7TDl, T27A, and Colo320 DM cells, an MTT assay was used to assess cell growth. […] The absorbance was determined at 570 nm wavelength with a reference wavelength of 630 nm using an ELISA plate reader.

time detected in plasma [1]: more than 48 hr
time detected in plasma (in vivo): greater than 24 hr
solubility in water (Solubility): not very soluble in water
brain level, athymic mice compared to Wistar rats ([3]; 2 hr post-dose): 11 times
brain level, athymic mice compared to Wistar rats ([3]; 4 hr post-dose): 6.5 times
% Increase, multiple vs single dose ([3]; A10 20 mg/kg): 64%
% Increase, multiple vs single dose ([3]; A10 40 mg/kg): 69%
time detected in plasma ([3]; IP A10 40 mg/kg single dose): more than 48 hr
time detected in plasma ([3]; IP A10 […] mg/kg four weekly treatments, after last dose): 48 h
time detected in plasma ([3]; IP A10 […] mg/kg single dose): more than 48 hr
Compound: CC(O)=C(C#N)C(=O)Nc1ccc(C(F)(F)F)cc1 [Compound B11, 2-cyano-3-hydroxy-N-[4-(trifluoromethyl)phenyl]-2-butenamide]
potency compared to A10, PDGF-stimulated DNA synthesis (T98G cells): equipotent in inhibiting PDGF-stimulated DNA synthesis
inhibition of tumor growth compared with A10 (C6 glioma cells; B11 15 mg/kg/day (DMSO) vs A10 15 mg/kg/day (DMSO)): to the same extent
potency compared to A10, growth of C6 tumors in vivo (C6 glioma cells; rat, in vivo): equipotent in the inhibition of the growth of C6 tumors in vivo
potency compared to A10, PDGF-stimulated cell cycle progression [2]: equipotent
potency compared to A10, in vitro growth assays (tumor cell lines): equipotent to A10
